Measurements reported in publication PMC9848300, “Discovery of novel enasidenib analogues targeting inhibition of mutant isocitrate dehydrogenase 2 as antileukaemic agents” (Journal of Enzyme Inhibition and Medicinal Chemistry, 2023).

Assays:
CCRF-CEM = assay: NCI 60 antitumor screening (single dose / five doses); assay type: cell-based; conditions: Homo sapiens; CCRF-CEM (leukaemia), single dose 10 μM; read-out: Growth inhibition percentage (GI %)
RPMI-8226 = assay: as above; assay type: cell-based; conditions: Homo sapiens; RPMI-8226 (leukaemia), single dose 10 μM; read-out: Growth inhibition percentage (GI %)
SR = assay: as above; assay type: cell-based; conditions: Homo sapiens; SR (leukaemia), single dose 10 μM; read-out: Growth inhibition percentage (GI %)
EKVX = assay: as above; assay type: cell-based; conditions: Homo sapiens; EKVX (non-small cell lung cancer), single dose 10 μM; read-out: Growth inhibition percentage (GI %)
HOP-92 = assay: as above; assay type: cell-based; conditions: Homo sapiens; HOP-92 (non-small cell lung cancer), single dose 10 μM; read-out: Growth inhibition percentage (GI %)
HCC-2998 = assay: NCI 60 antitumor screening (single dose); assay type: cell-based; conditions: Homo sapiens; HCC-2998 (colon cancer), single dose 10 μM; read-out: Growth inhibition percentage (GI %)
In short: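 At one concentration (10 μM), compounds are run in triplicate on 60 human cancer lines per the NCI method. Treated-cell growth is recorded as G%. Reported inhibition equals 100 − G%.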

SNB-19 = assay: NCI 60 antitumor screening (single dose); assay type: cell-based; conditions: Homo sapiens; SNB-19 (CNS cancer), single dose 10 μM; read-out: Growth inhibition percentage (GI %)
In short: (§1)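 GI% derived as 100 − G% from triplicate growth measurements in the NCI 60 human tumour panel, compound 10 μM, single dose, per NCI protocol.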

TK-10 = assay: NCI 60 antitumor screening (single dose); assay type: cell-based; conditions: Homo sapiens; TK-10 (renal cancer), single dose 10 μM; read-out: Growth inhibition percentage (GI %)
In short: as §1

COLO 205 = assay: NCI 60 antitumor screening (single dose / five doses); assay type: cell-based; conditions: Homo sapiens; COLO 205 (colon cancer), single dose 10 μM; read-out: Growth inhibition percentage (GI %)
HCT-116 = assay: as above; assay type: cell-based; conditions: Homo sapiens; HCT-116 (colon cancer), single dose 10 μM; read-out: Growth inhibition percentage (GI %)
HCT-15 = assay: as above; assay type: cell-based; conditions: Homo sapiens; HCT-15 (colon cancer), single dose 10 μM; read-out: Growth inhibition percentage (GI %)
SW-620 = assay: as above; assay type: cell-based, human; conditions: Homo sapiens; SW-620 (colon cancer), single dose 10 μM; read-out: Growth inhibition percentage (GI %)
SF-295 = assay: as above; assay type: cell-based; conditions: Homo sapiens; SF-295 (CNS cancer), single dose 10 μM; read-out: Growth inhibition percentage (GI %)
SF-539 = assay: as above; assay type: cell-based; conditions: Homo sapiens; SF-539 (CNS cancer), single dose 10 μM; read-out: Growth inhibition percentage (GI %)
LOX IMVI = assay: as above; assay type: cell-based; conditions: Homo sapiens; LOX IMVI (melanoma), single dose 10 μM; read-out: Growth inhibition percentage (GI %)
MDA-MB-435 = assay: as above; assay type: cell-based; conditions: Homo sapiens; MDA-MB-435 (melanoma), single dose 10 μM; read-out: Growth inhibition percentage (GI %)
SK-MEL-2 = assay: as above; assay type: cell-based; conditions: Homo sapiens; SK-MEL-2 (melanoma), single dose 10 μM; read-out: Growth inhibition percentage (GI %)
UACC-62 = assay: as above; assay type: cell-based; conditions: Homo sapiens; UACC-62 (melanoma), single dose 10 μM; read-out: Growth inhibition percentage (GI %)
IGROV1 = assay: as above; assay type: cell-based; conditions: Homo sapiens, IGROV-1; IGROV1 (ovarian cancer), single dose 10 μM; read-out: Growth inhibition percentage (GI %)
NCI/ADR-RES = assay: as above; assay type: cell-based; conditions: Homo sapiens; NCI/ADR-RES (ovarian cancer), single dose 10 μM; read-out: Growth inhibition percentage (GI %)
786-0 = assay: as above; assay type: cell-based; conditions: Homo sapiens, 786-0, 786-0 (renal cancer), single dose 10 μM; read-out: Growth inhibition percentage (GI %)
RXF 393 = assay: as above; assay type: cell-based; conditions: Homo sapiens; RXF 393 (renal cancer), single dose 10 μM; read-out: Growth inhibition percentage (GI %)
UO-31 = assay: as above; assay type: cell-based; conditions: Homo sapiens; UO-31 (renal cancer), single dose 10 μM; read-out: Growth inhibition percentage (GI %)
MDA-MB-231/ATCC = assay: as above; assay type: cell-based; conditions: Homo sapiens; MDA-MB-231/ATCC (breast cancer), single dose 10 μM; read-out: Growth inhibition percentage (GI %)
BT-549 = assay: as above; assay type: cell-based; conditions: Homo sapiens; BT-549 (breast cancer), single dose 10 μM; read-out: Growth inhibition percentage (GI %)
MDA-MB-468 = assay: as above; assay type: cell-based; conditions: Homo sapiens; MDA-MB-468 (breast cancer), single dose 10 μM; read-out: Growth inhibition percentage (GI %)
[1] = tested on: 60 human subpanel cancer cell lines; assay: NCI 60 antitumor screening, mean over the panel (single dose); assay type: cell-based; conditions: mean over 60 cancer cell lines, single dose 10 μM
Protocol: Initially, the anticancer effects of target compounds have been assessed at a single (10 μM) dose. The obtained data have been reported as mean-graph of the percent growth (G%) of the treated cancer cells. Percentage growth inhibition (GI%) is calculated (100 − G%) and pronounced in Table 1. […] Target compounds in series (III) with manipulated linkers disclosed lower potency. Superiorly, eight s-triazine derivatives from the three series (6a, 6c, 6d, 7a, 7g, 7i, 7l, and 8b) have shown potent broad-spectrum anticancer activity against most the examined cell lines, whereas most of the remaining triazine derivatives, 20 derivatives, have exerted selective anti-proliferative actions towards certain cancer cell lines (Supplementary).
The antitumor screening was performed for 60 human cancer cell lines under the protocol of NCI (www.dtp.nci.nih.gov), the Drug Evaluation Branch, Bethesda, MD. All submitted compounds were nominated based on the degree of structural diversity and computer modelling techniques for evaluation of their anticancer activity. The screening process for antineoplastic activity passes through two successive levels, starting with the assessment of target compounds at a single dose of 10 μM against 60 cancer cell lines on nine types of human tumours. These experiments were done on a triplicate following. The output from the single‐dose screening was covered as a mean graph, and then, analysed by the COMPARE program. Finally, the compounds which disclosed subpanel cancer cell growth (G %) equal to or less than 10% in at least eight cancer cell lines get to pass the assessment against the 60 cell lines at five doses (0.01–100 μM). By using GraphPad Prism version 9.0 (Graphpad Software Inc., La Jolla, CA), GI50, TGI, as well as LC50 dose‐response parameters were computed and presented for each compound (Supplementary information)[55–57].

A498 = assay: NCI 60 antitumor screening (single dose / five doses); assay type: cell-based; conditions: Homo sapiens; A498 (renal cancer), single dose 10 μM; read-out: Growth inhibition percentage (GI %)

| SMILES | inhibition at 10 µM (CCRF-CEM) | inhibition at 10 µM (RPMI-8226) | inhibition at 10 µM (SR) | inhibition at 10 µM (EKVX) | inhibition at 10 µM (HOP-92) | inhibition at 10 µM (HCC-2998) | inhibition at 10 µM (SNB-19) | inhibition at 10 µM (TK-10) | inhibition at 10 µM (COLO 205) | inhibition at 10 µM (HCT-116) | inhibition at 10 µM (HCT-15) | inhibition at 10 µM (SW-620) | inhibition at 10 µM (SF-295) | inhibition at 10 µM (SF-539) | inhibition at 10 µM (LOX IMVI) | inhibition at 10 µM (MDA-MB-435) | inhibition at 10 µM (SK-MEL-2) | inhibition at 10 µM (UACC-62) | inhibition at 10 µM (IGROV1) | inhibition at 10 µM (NCI/ADR-RES) | also measured |
| --- | --- | --- | --- | --- | --- | --- | --- | --- | --- | --- | --- | --- | --- | --- | --- | --- | --- | --- | --- | --- | --- |
| Brc1ccccc1/C=N/Nc1nc(N/N=C/c2ccccc2Br)nc(N2CCCCC2)n1 [compound 7b, 2,4-Bis[(E)-2-[(2-Bromophenyl)methylidene]hydrazin-1-yl]-6-(piperidin-1-yl)-1,3,5-triazine] | 0.06% | -0.33% | -1.34% | 4.52% | -33% | -7.41% | 3.76% | -16.5% | -5.18% | -2.25% | 1.2% | -0.46% | -3.22% | 2.62% | 1.94% | -1.23% | -1.28% | 12.2% | 2.38% | -2.41% | inhibition at 10 µM (786-0): 1.09%; inhibition at 10 µM (RXF 393): 2.13%; inhibition at 10 µM (UO-31): 7.3%; inhibition at 10 µM (MDA-MB-231/ATCC): 2.05%; inhibition at 10 µM (BT-549): -5.26%; inhibition at 10 µM (MDA-MB-468): 12.4%; Mean GI % [1]: −0.12% |
| C(=N\Nc1nc(N/N=C/c2ccc3c(c2)OCO3)nc(N2CCOCC2)n1)/c1ccc2c(c1)OCO2 [compound 6k, 2,4-Bis[(E)-2-(2H-1,3-Benzodioxol-5-ylmethylidene)hydrazin-1-yl]-6-(morpholin-4-yl)-1,3,5-triazine] | 41% | 40.3% | 85% | 4.47% | 8.47% | 8.26% | 5.57% | -3.24% | 40.7% | 37.1% | 41.5% | 29% | 9.09% | 18.2% | 30.1% | 4.07% | 1.68% | -4.28% | 24.3% | 23.3% | inhibition at 10 µM (786-0): 36.6%; inhibition at 10 µM (RXF 393): 30.5%; inhibition at 10 µM (UO-31): 46.4%; inhibition at 10 µM (MDA-MB-231/ATCC): 0.11%; inhibition at 10 µM (BT-549): 5.57%; inhibition at 10 µM (MDA-MB-468): 32.1%; Mean GI % [1]: 20.69% |
| CN(C)c1ccc(/C=N/Nc2nc(N/N=C/c3ccc(N(C)C)cc3)nc(N3CCOCC3)n2)cc1 [compound 6g, 4-[(1e)-(2-{4-[(E)-2-{[4-(dimethylamino)phenyl]methylidene}hydrazin-1-yl]-6-(morpholin-4-yl)-1,3,5-triazin-2-yl}hydrazin-1-ylidene)methyl]-N,N-dimethylaniline] | 86.7% | 65% | 113% | 4.62% | -8.78% | -2.9% | 8.7% | -10.2% | -8.37% | 64.3% | 77.6% | 16.2% | 86.2% | 3.33% | 12.3% | -4.43% | 1.45% | 2.25% | 5.41% | 0.17% | inhibition at 10 µM (786-0): 15.4%; inhibition at 10 µM (RXF 393): 6.9%; inhibition at 10 µM (UO-31): 9.35%; inhibition at 10 µM (MDA-MB-231/ATCC): 0.47%; inhibition at 10 µM (BT-549): -5.53%; inhibition at 10 µM (MDA-MB-468): 2.17%; Mean GI % [1]: 14.28% |
| Oc1ccccc1/C=N/Nc1nc(N/N=C/c2ccccc2O)nc(N2CCCCC2)n1 [compound 7a, 2-[(1e)-(2-{4-[(E)-2-[(2-Hydroxyphenyl)methylidene]hydrazin-1-yl]-6-(piperidin-1-yl)-1,3,5-triazin-2-yl}hydrazin-1-ylidene)methyl] phenol] | 78.3% | 57.4% | 60.2% | 69.9% | 21.6% | 60.4% | 44% | 2.29% | 75.5% | 22% | 22.6% | 32.2% | 47.4% | 40.6% | 60.3% | 30.9% | 30.8% | 29.7% | 54.8% | 81% | inhibition at 10 µM (786-0): 26.8%; inhibition at 10 µM (A498): 17%; inhibition at 10 µM (RXF 393): 17%; inhibition at 10 µM (UO-31): 51.7%; inhibition at 10 µM (MDA-MB-231/ATCC): 34.5%; inhibition at 10 µM (MDA-MB-468): 36.2%; Mean GI % [1]: 45.09% |
